Reference: PMC9503778, “Targeted Isolation of Antibiotic Brominated Alkaloids from the Marine Sponge Pseudoceratina durissima Using Virtual Screening and Molecular Networking” (Marine Drugs, 2022)
Converted amounts (≈) assume the structure as drawn. “And” between values parts separate entries of the source, which are not always exact repeats. Equal values may be shown once. Read-outs that look alike come from different tables or passages of the source.

Legend:
[1] = system: E. Coli (G-) strain ATCC 25922; assay: Antimicrobial growth inhibition (CO-ADD), E. coli; type: cell-based, Escherichia coli; settings: for % inhibition E. coli: 32 µg/mL; for % inhibition E. coli / inhibition at 32 µg/mL: duplicate (n = 2) values; for inhibition at 32 µg/mL / MIC: Escherichia coli; for inhibition at 32 µg/mL: ATCC25922, 32 µg/mL, read-out: % inhibition E. coli; for MIC: ATCC25922, read-out: MIC E. coli
Description: (§1) Compounds 1−3 and 5−12 were assayed against a selection of medically important pathogenic microorganisms (MRSA, E. coli, K. pneumoniae, A. baumanii, P. aeruginosa, C. albicans, C. neoformans), Table 4. […] To the best of our knowledge this compound had not been tested against any drug resistant strain of Gram-positive bacterium until this study.
(§2) The antimicrobial activity testing was performed by the Community for Antimicrobial Drug Discovery (CO-ADD). Compounds were assayed against a range of both Gram negative and Gram positive bacteria (see Supplementary Materials S3) including methicillin-resistant Staphylococcus aureus (MRSA) (G+), Escherichia coli (G-), Klebsiella pneumoniae (G-), Acinetobacter baumannii (G-), Pseudomonas aeruginosa (G-) together with two species of fungus (Candida albicans and Cryptococcus neoformans).
(§3) S3. Antimicrobial activity testing methodology
(§4) The compounds submitted to CO-ADD were evaluated in duplicate (n = 2) against seven microorganisms (five bacteria and two fungi) at a concentration of 32 µg/mL in a 384-well, non-binding surface plate (NBS) for each bacterial/fungal strain, keeping the final DMSO concentration to a maximum of 1% DMSO. All bacteria were cultured in cation-adjusted Mueller-Hinton broth (CAMHB) at 37 °C overnight. A sample of each culture was then diluted 40-fold in fresh broth and incubated at 37 °C for 1.5-3 h. The resultant mid-log phase cultures were diluted (CFU/mL measured by OD600), then added to each well of the compound containing plates, giving a cell density of 5x10^5 CFU/mL and a total volume of 50 µL. All the plates were covered and incubated at 37 °C for 18 h without shaking. […] Inhibition of bacterial growth was determined measuring absorbance at 600 nm (OD600) using a Tecan M1000 Pro mon-ochromator plate reader. […]
(§5) 2 h. The absorbance was measured using a Biotek Synergy HTX plate reader. The percentage of growth inhibition was calculated for each well, using negative control (medium only) and positive control (bacteria without inhibitors) on the same plate as the references. The significance of inhibition values was determined by modified Z-scores, calculated using the median and MAD of the samples (no controls) on the same plate. Samples with inhibition value above 80% and Z-score above 2.5 for either replicate (n = 2 on different plates) were classed as actives.
(§6) Colistin and vancomycin were used as positive bacterial inhibitor standards for Gram-negative and Gram-positive bac-teria, respectively. Fluconazole was used as a positive fungal inhibitor standard for C. albicans and C. neoformans. The antibiotics were provided in four concentrations, with two above and two below its MIC value, and plated into the first eight wells of column 23 of the 384-well NBS plates. The quality control (QC) of the assays was determined by the antimicrobial controls and the Z’-factor (using positive and negative controls). Each plate was deemed to fulfil the qual- […]
(§7) full growth inhibition at their highest concentration, and no growth inhibition at their lowest concentration. The seven […]
(§8) test microorganisms were Staphylococcus aureus MRSA (ATCC 43300), Escherichia coli (ATCC 25922), Klebsiella pneu-moniae (ATCC 700603), Acinetobacter baumanii (ATCC19606), Pseudomonas aeruginosa (ATCC 27853), Candida albicans (ATCC 90028) and Cryptococcus neoformans var. grubii (H99; ATCC 208821).
(§9) S4. Anthelmintic activity testing methodology
(§10) Dose-response evaluations were carried out to estimate the half-maximal inhibitory concentrations (IC50 values) for compounds against Haemonchus contortus (Haecon-5 strain) exsheathed third-stage larvae (xL3s). H. contortus were maintained in experimental sheep and procured in accordance with the institutional animal ethics guidelines and the regulations of Australia (permit no. 1714374; University of Melbourne). Immediately prior to use, third-stage larvae (L3s) were exsheathed and sterilised by incubation in 0.15% (v/v) bleach at 38 °C for 20 min, followed by washes in […]

[2] = system: K. pneumoniae (G-) strain ATCC 700603; assay: Antimicrobial growth inhibition (CO-ADD), K. pneumoniae; type: cell-based, Klebsiella pneumoniae; settings: for % inhibition K. pneumoniae: 32 µg/mL; for % inhibition K. pneumoniae / inhibition at 32 µg/mL: duplicate (n = 2) values; for MIC / inhibition at 32 µg/mL: Klebsiella pneumoniae; for MIC: ATCC700603, read-out: MIC K. pneumoniae; for inhibition at 32 µg/mL: ATCC700603, 32 µg/mL, read-out: % inhibition K. pneumoniae
Description: as §1, §2, §3, §4, §5, §6, §7, §8, §9, §10

[3] = system: A. baumannii (G-) strain ATCC 19606; assay: Antimicrobial growth inhibition (CO-ADD), A. baumannii; type: cell-based, Acinetobacter baumannii; settings: for MIC: Acinetobacter baumannii, ATCC19606, read-out: MIC A. baumannii
Description: as §1, §2, §3, §4, §5, §6, §7, §8, §9, §10

[4] = system: P. auruginosa (G-) strain ATCC 27853; assay: Antimicrobial growth inhibition (CO-ADD), P. aeruginosa; type: cell-based, Pseudomonas aeruginosa; settings: ATCC 27853; for MIC: Pseudomonas aeruginosa, ATCC27853, read-out: MIC P. aeruginosa
Description: as §1, §2, §3, §4, §5, §6, §7, §8, §9, §10

human red blood cells = assay: Haemolysis assay (CO-ADD); type: cell-based
[5] = system: zebrafish larvae at 5 dpf; set-up: method as in PMID 35200664; settings: cited from earlier work
[6] = system: C. albicans (yeast) ATCC 90028; assay: Antimicrobial growth inhibition (CO-ADD), C. albicans; type: cell-based, Candida albicans; settings: Candida albicans, ATCC90028; ATCC 90028; read-out: MIC C. albicans
Description: as §1, §2, §3
(§11) The compounds submitted to CO-ADD were evaluated in duplicate (n = 2) against seven microorganisms (five bacteria and two fungi) at a concentration of 32 µg/mL in a 384-well, non-binding surface plate (NBS) for each bacterial/fungal strain, keeping the final DMSO concentration to a maximum of 1% DMSO. All bacteria were cultured in cation-adjusted […]
(§12) Fungal strains were cultured for 3 days on Yeast Extract-Peptone Dextrose (YPD) agar at 30 °C. A yeast suspension of 1 x 10^6 to 5 x 10^6 CFU/mL (as determined by OD530) was prepared from five colonies. The suspension was subsequently diluted and added to each well of the compound-containing plates giving a final cell density of fungi suspension of 2.5 x 10^3 CFU/mL and a total volume of 50 µL. All plates were covered and incubated at 35 °C for 24 h without shaking. […]
as §5, §6, §7, §8, §9
Dose-response evaluations were carried out to estimate the half-maximal inhibitory concentrations (IC50 values) for compounds against Haemonchus contortus (Haecon-5 strain) exsheathed third-stage larvae (xL3s). H. contortus were maintained in experimental sheep and procured in accordance with the institutional animal ethics guidelines and the regulations of Australia (permit no. 1714374; University of Melbourne). Immediately prior to use, third-stage larvae (L3s) were exsheathed and sterilised by incubation in 0.15% (v/v) bleach at 38 °C for 20 min, followed by washes in sterile saline at room temperature (22-24 °C). […]

[7] = system: C. neoformans var. grubii strain ATCC 208821; assay: Antimicrobial growth inhibition (CO-ADD), C. neoformans; type: cell-based; settings: Cryptococcus neoformans, ATCC208821; var. grubii ATCC 208821; read-out: MIC C. neoformans
[8] = Cytotoxicity assay (CO-ADD); type: cell-based; settings: human, human embryonic kidney cells
[9] = system: MRSA (G+) strain ATCC 43300; assay: Antimicrobial growth inhibition (CO-ADD), MRSA; type: cell-based, Staphylococcus aureus; settings: for MIC: Staphylococcus aureus, read-out: MIC MRSA
Description: as §1, §2, §3, §4, §5, §6, §7, §8, §9, §10

[10] = system: Mediterranean fish species Blennius sphinx; set-up: method as in PMID 15018063; settings: cited from earlier work
[11] = system: C. neoformans var. grubii strain ATCC 208821; assay: Antimicrobial growth inhibition (CO-ADD), C. neoformans; type: cell-based, Cryptococcus neoformans; settings: duplicate (n = 2) values
Description: as §1, §2, §3, §11, §12
as §5, with “Growth inhibition of C. albicans was determined measuring absorbance at 530 nm (OD530), while the growth inhibition of C. neoformans was determined measuring the difference in absorbance between 600 and 570 nm (OD600-570), after the addition of resazurin (0.001% final concentration) and incubation at 35 °C for an additional 2 h.” for “2 h.”
as §6, §7, §8, §9
Dose-response evaluations were carried out to estimate the half-maximal inhibitory concentrations (IC50 values) for compounds against Haemonchus contortus (Haecon-5 strain) exsheathed third-stage larvae (xL3s). H. contortus were maintained in experimental sheep and procured in accordance with the institutional animal ethics guidelines and the […]

[12] = ATCC 25922, MIC = concentration at which growth inhibited by ≥80%
[13] = 32 µg/mL, duplicate (n = 2) values
[14] = ATCC 43300, MIC = concentration at which growth inhibited by ≥80%, range 0.25−32 µg/mL

Colistin [reference compound]
MIC E. coli [1, 12]: Colistin: 0.125 µg/mL
MIC K. pneumoniae ([2]; ATCC 700603): Colistin: 0.25 µg/mL
MIC A. baumannii ([3]; ATCC 19606): Colistin: 0.25 µg/mL
MIC P. aeruginosa [4]: Colistin: 0.25 µg/mL

CC[C@H](C)[C@H](NC(=O)CN)C(=O)NCC(=O)N[C@@H](C)C(=O)N[C@H](C(=O)N[C@@H](CC(C)C)C(=O)N[C@@H](CCCCN)C(=O)N[C@H](C(=O)N[C@@H](CC(C)C)C(=O)N[C@H](C(=O)N[C@H](C(=O)NCC(=O)N[C@@H](CC(C)C)C(=O)N1CCC[C@H]1C(=O)N[C@@H](C)C(=O)N[C@@H](CC(C)C)C(=O)N[C@H](C(=O)N[C@@H](CO)C(=O)N[C@@H](Cc1c[nH]c2ccccc12)C(=O)N[C@H](C(=O)N[C@@H](CCCCN)C(=O)N[C@@H](CCCNC(=N)N)C(=O)N[C@@H](CCCCN)C(=O)N[C@@H](CCCNC(=N)N)C(=O)N[C@@H](CCC(N)=O)C(=O)N[C@@H](CCC(N)=O)C(N)=O)[C@@H](C)CC)[C@@H](C)CC)[C@@H](C)O)[C@@H](C)O)C(C)C)C(C)C [Melittin, reference compound]
Haemolysis (HC10) (human red blood cells): Melittin: 2.7 µg/mL

COC1=C(Br)[C@@H](O)[C@]2(C=C1Br)CC(C(=O)NCCc1cnc[nH]1)=NO2 [aerophobin-1]
concentration giving significant larval mortality [5]: > 1000 nM

COC1=C(Br)[C@H](O)[C@@]2(C=C1Br)CC(C(=O)NCCCc1cnc(N)[nH]1)=NO2 [aerophobin-2]
concentration giving significant larval mortality [5]: > 1000 nM

OC(Cn1cncn1)(Cn1cncn1)c1ccc(F)cc1F [Fluconazole, reference compound]
MIC [6]: 0.125 µg/mL
MIC [7]: 8 µg/mL (≈ 26.1 µM)

CC/C(=C(\c1ccccc1)c1ccc(OCCN(C)C)cc1)c1ccccc1 [Tamoxifen, reference compound]
CC50 [8]: 9 µg/mL (≈ 24.2 µM)

COC(=O)NCCCCNC(=O)C1=NO[C@]2(C=C(Br)C(OC)=C(Br)[C@@H]2O)C1 [Compound 12, subereamolline C]
CC50 [8]: > 32 µg/mL
Haemolysis (HC10) (human red blood cells): >32 µg/mL
% inhibition MRSA [9, 13]: 0.4% and 8.2%
MIC [9, 14]: > 32 µg/mL
% inhibition E. coli [1]: 6.4%
inhibition at 32 µg/mL [1]: 12.3%
MIC [1, 12]: > 32 µg/mL
% inhibition K. pneumoniae [2]: 14.0% and 5.6%
MIC ([2]; ATCC 700603): > 32 µg/mL
MIC ([3]; ATCC 19606): > 32 µg/mL
MIC [4]: > 32 µg/mL
MIC [6]: > 32 µg/mL
MIC [7]: > 32 µg/mL

aplysinamisin-1 [reference compound]
feeding deterrent activity, Blennius sphinx [10]: significant feeding deterrent activity

CN[C@H](CC(C)C)C(=O)N[C@H]1C(=O)N[C@@H](CC(N)=O)C(=O)N[C@H]2C(=O)N[C@H]3C(=O)N[C@H](C(=O)N[C@H](C(=O)O)c4cc(O)cc(O)c4-c4cc3ccc4O)[C@H](O)c3ccc(c(Cl)c3)Oc3cc2cc(c3O[C@@H]2O[C@H](CO)[C@@H](O)[C@H](O)[C@H]2O[C@H]2C[C@](C)(N)[C@H](O)[C@H](C)O2)Oc2ccc(cc2Cl)[C@H]1O [Vancomycin, reference compound]
MIC [9]: 1 µg/mL

COC(=O)Cc1c(O)cc(Br)c(O)c1Br [Compound 10, subereaphenol B]
CC50 [8]: > 32 µg/mL
Haemolysis (HC10) (human red blood cells): >32 µg/mL
MIC [9, 14]: > 32 µg/mL
% inhibition E. coli [1]: 15.8% and 6.4%
MIC [1, 12]: > 32 µg/mL
% inhibition K. pneumoniae [2]: 9.3%
inhibition at 32 µg/mL [2]: 6.1%
MIC ([2]; ATCC 700603): > 32 µg/mL
% inhibition A. baumannii [3, 13]: −1.4% and −9.2%
MIC ([3]; ATCC 19606): > 32 µg/mL
MIC [4]: > 32 µg/mL
MIC [6]: > 32 µg/mL
% inhibition C. neoformans ([11]; 32 µg/mL): 8.5%
inhibition at 32 µg/mL ([11]; Cryptococcus neoformans, ATCC208821, 32 µg/mL, read-out: % inhibition C. neoformans): 12.4%
MIC [7]: > 32 µg/mL

COC1(OC)C(Br)=CC(O)(CC#N)C=C1Br [Compound 7, 2-(3,5-dibromo-1-hydroxy-4,4-dimethoxycyclohexa-2,5-dien-1-yl)acetonitrile]
CC50 [8]: > 32 µg/mL
Haemolysis (HC10) (human red blood cells): >32 µg/mL
MIC [9, 14]: > 32 µg/mL
% inhibition E. coli [1]: 6.2%
inhibition at 32 µg/mL [1]: 11.2%
MIC [1, 12]: > 32 µg/mL
% inhibition K. pneumoniae [2]: 13.3%
inhibition at 32 µg/mL [2]: 10.6%
MIC ([2]; ATCC 700603): > 32 µg/mL
MIC ([3]; ATCC 19606): > 32 µg/mL
MIC [4]: > 32 µg/mL
MIC [6]: > 32 µg/mL
MIC [7]: > 32 µg/mL
